# Experimental data published in patent US20020146741A1, “Processes for receptpor screening” (priority 2000, published 2002).
# Experiments:
# [1] = biological target: T1, GR (Homo sapiens, UniProt P04150); experiment: FP-based competitive ligand binding assay; parameters: GR was produced as a full length protein in insect cells and partially purified using ion exchange chromatography; made in house; host or cells: insect cells (baculovirus); settings: for Ki: GR 4 nM, fluorescein-dexamethasone probe, 1-hour incubation at room temperature; for RBA: relative binding affinity, dexamethasone = 100
# T1 sequence (P04150 1-777): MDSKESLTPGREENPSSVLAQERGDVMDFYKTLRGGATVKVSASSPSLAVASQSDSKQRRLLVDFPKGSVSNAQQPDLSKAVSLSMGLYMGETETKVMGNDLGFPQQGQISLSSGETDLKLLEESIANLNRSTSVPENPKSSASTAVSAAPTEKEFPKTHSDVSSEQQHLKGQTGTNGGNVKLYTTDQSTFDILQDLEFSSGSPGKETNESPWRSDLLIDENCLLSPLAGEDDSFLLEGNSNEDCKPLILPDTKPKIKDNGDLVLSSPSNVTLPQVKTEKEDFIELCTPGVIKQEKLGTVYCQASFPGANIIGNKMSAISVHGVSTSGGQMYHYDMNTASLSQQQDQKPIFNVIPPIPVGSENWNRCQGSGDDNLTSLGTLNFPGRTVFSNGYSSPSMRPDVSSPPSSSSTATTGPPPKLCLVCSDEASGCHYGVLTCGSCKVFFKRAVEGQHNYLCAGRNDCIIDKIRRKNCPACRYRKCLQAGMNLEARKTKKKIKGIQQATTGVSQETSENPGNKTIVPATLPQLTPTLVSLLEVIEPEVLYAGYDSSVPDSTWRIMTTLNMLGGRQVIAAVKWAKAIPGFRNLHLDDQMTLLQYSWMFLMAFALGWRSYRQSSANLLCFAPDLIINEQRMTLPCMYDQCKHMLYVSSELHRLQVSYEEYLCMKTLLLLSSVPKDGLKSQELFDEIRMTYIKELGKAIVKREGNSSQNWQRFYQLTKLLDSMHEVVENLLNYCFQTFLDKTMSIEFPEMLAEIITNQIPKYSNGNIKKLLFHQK
# Description: FIG. 3A and B are graphs showing FP-based competition assays with recombinant GR (A) and PR-LBD (B). Serial dilutions of test steroids were prepared. […] Final incubation conditions were similar to those described in FIG. 3. The final concentration of GR used was 4 nM, and for PR-LBD it was 8 nM. After a 1-hour incubation at room temperature, the fluorescence polarization of each well was read, using wells lacking fluor as blanks.
# The other criteria used for validating a fluorescent steroid conjugate is the ability of known receptor ligands to compete with the fluor for binding to the receptor.
# [2] = biological target: T1, GR; settings: literature RBA, dexamethasone = 100; cited from earlier work
SMILES,Ki [1] [nM],RBA [1],Literature Value [2]
C[C@]12CCC(=O)C=C1CC[C@@H]1[C@@H]2[C@@H](O)C[C@@]2(C)[C@H]1CC[C@]2(O)C(=O)CO [Cortisol],,24,33
CC(=O)OCC(=O)[C@@]12OC3(CCCC3)O[C@@H]1C[C@H]1[C@@H]3CCC4=CC(=O)C=C[C@]4(C)[C@@]3(F)[C@@H](O)C[C@@]12C [Amcinonide],1.9,40,

# Now from value to compound, other results behind:
Ki [1] [nM],RBA [1],SMILES,Literature Value [2]
0.9,,CC1(C)O[C@@H]2C[C@H]3[C@@H]4CCC5=CC(=O)C=C[C@]5(C)[C@@]4(F)[C@@H](O)C[C@]3(C)[C@]2(C(=O)CO)O1 [Triamcinolone acetonide],
4.4,17,CC(=O)OCC(=O)[C@@]12OC(C)(C)O[C@@H]1C[C@H]1[C@@H]3C[C@H](F)C4=CC(=O)C=C[C@]4(C)[C@@]3(F)[C@@H](O)C[C@@]12C [Fluocinonide],
1,73,CC1(C)O[C@@H]2C[C@H]3[C@@H]4C[C@H](F)C5=CC(=O)C=C[C@]5(C)[C@H]4[C@@H](O)C[C@]3(C)[C@]2(C(=O)CO)O1 [Flunisolide],100
